For the assay, the target named is human IDO1 (Homo sapiens, UniProt P14902). As to the kind of experiment: Assessment of human IDO-1 inhibitory activity in HEK cells (human IDO1/HEK293 cells, kynurenine read-out with Ehrlich reagent, absorbance 490 nm). Format: cell-based. Set-up: expressed in transfected cells. The note with it: HEK Human IDO-1 cellular assay. On the procedure: Exemplary compounds were tested for inhibition of IDO activity.
Assessment of Human IDO-1 Inhibitory Activity in HEK Cells
HEK293 cells were transfected with a pCDNA-based mammalian expression vector harboring human IDO1 cDNA (NM 002164.2) by electroporation. They were cultured in medium (DMEM with 10% FBS) containing 1 mg/ml G418 for two weeks. Clones of HEK293 cells that stably expressed human IDO1 protein were selected and expanded for IDO inhibition assay.
The human IDO1/HEK293 cells were seeded at 10,000 cells per 50 μL per well with RPMI/phenol red free media contains 10% FBS in a 384-well black wall clear bottom tissue culture plate (Matrix Technologies LLC) 100 nL of certain concentration of compound was then added to each well using ECHO liquid handling systems. The cells were incubated for 20 hours in 37° C. incubator with 5% CO2.
The compound treatments were stopped by adding trichloroacetic acid (Sigma-Aldrich) to a final concentration at 0.2%. The cell plate was further incubated at 50° C. for 30 minute. The equal volume supernatant (20 μL) and 0.2% (w/v) Ehrlich reagent (4-dimethylaminobenzaldehyde, Sigma-Aldrich) in glacial acetic acid were mixed in a new clear bottom 384-well plate. This plate was then incubated at room temperature for 30 minute. The absorbance at 490 nm was measured on Envision plate reader.
Compound IC50 values were calculated using the counts of 500 nM of a reference standard treatment as one hundred percent inhibition, and counts of no compound but DMSO treatment as zero percent inhibition.

pIC50: −log10 of the molar value. Where a name gives a salt, the structure may show the parent alone. A value given as a limit tells only on which side of the number the result lay.

Chain of human IDO1 (P14902 whole entry): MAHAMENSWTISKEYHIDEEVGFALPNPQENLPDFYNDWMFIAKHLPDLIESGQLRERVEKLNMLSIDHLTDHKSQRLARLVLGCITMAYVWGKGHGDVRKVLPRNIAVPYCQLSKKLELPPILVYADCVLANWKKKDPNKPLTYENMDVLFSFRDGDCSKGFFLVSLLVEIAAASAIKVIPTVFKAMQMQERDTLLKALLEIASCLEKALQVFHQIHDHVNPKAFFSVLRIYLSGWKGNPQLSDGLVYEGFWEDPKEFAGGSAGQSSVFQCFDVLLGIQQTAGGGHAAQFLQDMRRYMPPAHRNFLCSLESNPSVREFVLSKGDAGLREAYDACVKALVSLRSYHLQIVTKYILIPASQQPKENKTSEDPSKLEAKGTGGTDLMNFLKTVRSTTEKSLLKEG

Take “3-(4-(isobutyl(tetrahydro-2H-pyran-4-yl)amino)-3-(3-(4-phenoxyphenyl)ureido)phenyl)butanoic acid [Example 959]”: the pIC50 is more than 8.30.
As for “3-(4-(isobutyl(tetrahydro-2H-pyran-4-yl)amino)-3-(3-(4-phenoxyphenyl)ureido)phenyl)butanoic acid [Example 962]”, the pIC50 was less than 7.30.
On to `CCC(CC(=O)O)c1ccc(N(CC(C)C)CC(C)(C)O)c(Nc2ccc3nc(C)sc3c2)c1` (racemic) [Example 452, 3-(4-((2-Hydroxy-2-methylpropyl)(isobutyl)amino)-3-((2-methylbenzo[d]thiazol-6-yl)amino)phenyl)pentanoic acid], for which the pIC50 was less than 7.30.
Consider `CCC(CC(=O)O)c1ccc(N(CC(C)C)CC(C)(C)O)c(Nc2ccc(Cl)cc2)c1` (racemic) [Example 453, 3-(3-((4-chlorophenyl)amino)-4-((2-hydroxy-2-methyl-propyl)(isobutyl)amino)phenyl) pentanoic acid], for which the pIC50 was more than 8.30.
As for `CCC(CC(=O)O)c1ccc(N(CC)C2CCOCC2)c(NC(=O)Nc2ccc(OC)cc2F)c1` (racemic) [Example 608, 3-(4-(Ethyl(tetrahydro-2H-pyran-4-yl)amino)-3-(3-(2-fluoro-4-methoxyphenyl)ureido)phenyl)pentanoic acid], the pIC50 was more than 8.30.
As for `CCCN(c1ccc(C(CC)CC(=O)O)cc1NC(=O)Nc1ccc(OC)cc1F)C1CCOCC1` (racemic) [Example 609, 3-(3-(3-(2-Fluoro-4-methoxyphenyl)ureido)-4-(propyl(tetrahydro-2H-pyran-4-yl)amino)phenyl)pentanoic acid], the negative logarithm of the IC50 (pIC50) was more than 8.30.
As to `CCCN(c1ccc(C(CC)CC(=O)O)cc1NC(=O)Nc1cnc(C)nc1)C1CCOCC1` (racemic) [Example 610, 3-(3-(3-(2-methylpyrimidin-5-yl)ureido)-4-(propyl(tetrahydro-2H-pyran-4-yl)amino)phenyl)pentanoic acid], the pIC50 was less than 7.30.
Turning to `CCCN(c1ccc(C(CC)CC(=O)O)cc1Nc1ncc(CC)cn1)C1CCOCC1` (racemic) [Example 611, 3-(3-((5-Ethylpyrimidin-2-yl)amino)-4-(propyl(tetrahydro-2H-pyran-4-yl)amino)phenyl)pentanoic acid], the pIC50 is more than 7.30.
The result for `CCC(CC(=O)O)c1ccc(N(CC(C)C)CC(C)C)c(NC(=O)Cc2ccc(C)cc2)c1` (racemic) [Example 949, (+/−)-3-(4-(Diisobutylamino)-3-(2-(p-tolyl)acetamido)phenyl)pentanoic acid] reads more than 8.30; that for `CCC(CC(=O)O)c1ccc(N(CC(C)C)CC(C)C)c(NC(=O)Cc2ccc(C#N)cc2)c1` (racemic) [Example 950, (+/−)-3-(3-(2-(4-Cyanophenyl)acetamido)-4-(diisobutylamino)phenyl)pentanoic acid], more than 8.30; that for `CCC(CC(=O)O)c1cc(NC(=O)Nc2ccc(C)cc2)c(N(CC(C)C)C2CCCCC2)cc1F` (racemic) [Example 951, (+/−)-3-(4-(Cyclohexyl(isobutyl)amino)-2-fluoro-5-(3-(p-tolyl)ureido)phenyl)pentanoic acid], more than 8.30.
For the molecule `CCOc1ccc(NC(=O)Nc2cc(C(CC)CC(=O)O)c(F)cc2N(CC(C)C)C2CCCCC2)cc1` (racemic) [Example 952, (+/−)-3-(4-(Cyclohexyl(isobutyl)amino)-5-(3-(4-ethoxyphenyl)ureido)-2-fluorophenyl)pentanoic acid], the pIC50 was more than 8.30.
Take `Cc1ccc(NC(=O)Nc2cc(C(C)CC(=O)O)c(F)cc2N(CC(C)C)C2CCCCC2)cc1` (racemic) [Example 955, (+/−)-3-(4-(Cyclohexyl(isobutyl)amino)-2-fluoro-5-(3-(p-tolyl)ureido)phenyl)butanoic acid]: the pIC50 is more than 8.30.
Under `CCC(CC(=O)O)c1cc(F)c(N(CC(C)C)CC(C)C)c(NC(=O)Nc2cc(C(C)(C)C)on2)c1` (racemic) [Example 971, (+/−)-3-(3-(3-(5-(tert-Butyl)isoxazol-3-yl)ureido)-4-(diisobutylamino)-5-fluorophenyl)pentanoic acid, TFA] stands less than 7.30; under `CCCCc1ccc(NC(=O)Nc2cc(C(CC)CC(=O)O)cc(F)c2N(CC(C)C)CC(C)C)cc1` (racemic) [Example 973, (+/−)-3-(3-(3-(4-butylphenyl)ureido)-4-(diisobutylamino)-5-fluorophenyl)pentanoic acid], more than 7.30; under `CCC(CC(=O)O)c1cc(F)c(N(CC(C)C)CC(C)C)c(NC(=O)Nc2ccc(C)c(F)c2)c1` (racemic) [Example 974, (+/−)-3-(4-(diisobutylamino)-3-fluoro-5-(3-(3-fluoro-4-methylphenyl)ureido)phenyl)pentanoic acid], more than 7.30.
Consider `CCC(CC(=O)O)c1cc(F)c(N(CC(C)C)CC(C)C)c(NC(=O)Nc2ccccc2Cl)c1` (racemic) [Example 975, (+/−)-3-(3-(3-(2-chlorophenyl)ureido)-4-(diisobutylamino)-5-fluorophenyl)pentanoic acid], for which the pIC50 was more than 7.30.
Take `CCC(CC(=O)O)c1cc(F)c(N(CC(C)C)CC(C)C)c(NC(=O)Nc2cc(C(F)(F)F)ccc2F)c1` (racemic) [Example 976, (+/−)-3-(4-(diisobutylamino)-3-fluoro-5-(3-(2-fluoro-5-(trifluoromethyl)phenyl)ureido)phenyl)pentanoic acid]: the pIC50 is more than 7.30.
Take `CCC(CC(=O)O)c1cc(F)c(N(CC(C)C)CC(C)C)c(NC(=O)Nc2ccc(C#N)c(Cl)c2)c1` (racemic) [Example 978, (+/−)-3-(3-(3-(3-chloro-4-cyanophenyl)ureido)-4-(diisobutylamino)-5-fluorophenyl)pentanoic acid]: the pIC50 is more than 7.30.
On to `COCC(CC(=O)O)c1ccc(N(CC(C)C)C2CCCCC2)c(NC(=O)Nc2ccccc2F)c1` (racemic) [Example 983, (+/−)-3-(4-(Cyclohexyl(isobutyl)amino)-3-(3-(2-fluorophenyl)ureido)phenyl)-4-methoxybutanoic acid], for which the pIC50 is more than 8.30.
For the molecule `COCC(CC(=O)O)c1ccc(N(CC(C)C)C2CCCCC2)c(NC(=O)Nc2ccc(Cl)cc2F)c1` (racemic) [Example 984, (+/−)-3-(3-(3-(4-Chloro-2-fluorophenyl)ureido)-4-(cyclohexyl(isobutyl)amino)phenyl)-4-methoxybutanoic acid], the pIC50 was more than 8.30.
The result for `COCC(CC(=O)O)c1ccc(N(CC(C)C)C2CCCCC2)c(NC(=O)Nc2cc(C)on2)c1` (racemic) [Example 986, (+/−)-3-(4-(Cyclohexyl(isobutyl)amino)-3-(3-(5-methylisoxazol-3-yl)ureido)phenyl)-4-methoxybutanoic acid] reads more than 7.30.
As to `COCC(CC(=O)O)c1ccc(N(CC(C)C)C2CCCCC2)c(NC(=O)Nc2ccc(C)cc2)c1` (racemic) [Example 988, (+/−)-3-(4-(Cyclohexyl(isobutyl)amino)-3-(3-(p-tolyl)ureido)phenyl)-4-methoxybutanoic acid], the negative logarithm of the IC50 (pIC50) is more than 8.30.
The result for `COCC(CC(=O)O)c1ccc(N(CC(C)C)C2CCCCC2)c(NC(=O)Nc2cncnc2)c1` (racemic) [Example 990, (+/−)-3-(4-(Cyclohexyl(isobutyl)amino)-3-(3-(pyrimidin-5-yl)ureido)phenyl)-4-methoxybutanoic acid] reads more than 7.30; that for `COCC(CC(=O)O)c1ccc(N(CC(C)C)CC(C)C)c(NC(=O)Nc2ccc(C)cc2)c1` (racemic) [Example 992, (+/−)-3-(4-(Diisobutylamino)-3-(3-(p-tolyl)ureido)phenyl)-4-methoxybutanoic acid], more than 7.30.
Consider `COCC(CC(=O)O)c1ccc(N(CC(C)C)CC(C)C)c(NC(=O)Nc2ccc(Cl)cc2F)c1` (racemic) [Example 994, (+/−)-3-(3-(3-(4-Chloro-2-fluorophenyl)ureido)-4-(diisobutylamino)phenyl)-4-methoxybutanoic acid], for which the pIC50 is more than 8.30.
The result for `COCC(CC(=O)O)c1ccc(N(CC(C)C)CC(C)C)c(NC(=O)Nc2cncnc2)c1` (racemic) [Example 996, (+/−)-3-(4-(Diisobutylamino)-3-(3-(pyrimidin-5-yl)ureido)phenyl)-4-methoxybutanoic acid] reads less than 7.30; that for `COCC(CC(=O)O)c1ccc(N(CC(C)C)CC(C)C)c(NC(=O)Nc2cc(C)on2)c1` (racemic) [Example 998, (+/−)-3-(4-(Diisobutylamino)-3-(3-(5-methylisoxazol-3-yl)ureido)phenyl)-4-methoxybutanoic acid], more than 7.30; that for `CC(C)CN(CC(C)C)c1ccc(C(CC(=O)O)CN(C)C)cc1NC(=O)Nc1ccc(Cl)cc1F` (racemic) [Example 1000, (+/−)-3-(3-(3-(4-Chloro-2-fluorophenyl)ureido)-4-(diisobutylamino)phenyl)-4-(dimethylamino)butanoic acid], less than 7.30.
`CC(C)CN(CC(C)C)c1ccc(C(CC(=O)O)CN(C)C)cc1NC(=O)Nc1cncnc1` (racemic) [Example 1001, (+/−)-3-(4-(Disobutylamino)-3-(3-(pyrimidin-5-yl)ureido)phenyl)-4-(dimethylamino)butanoic acid]: the pIC50 is less than 7.30.

The term pIC50 denotes the IC50 on a negative log10 scale, so that one unit is a factor of ten.

The values are drawn from patent publication US9790169B2, “IDO inhibitors” (BRISTOL-MYERS SQUIBB COMPANY, priority 2015, dated 2017).
